# Laboratory results taken from US7994209B2, “3-phenoxymethylpyrrolidine compounds” (Theravance, Inc., priority 2009, dated 2011).
# Biological target: T1, hSERT (Homo sapiens, UniProt P31645)
# Assay: hSERT neurotransmitter uptake assay (3H-5-HT), Assay 2
# Assay type: cell-based
# Design: expressed in transfected cells; host or cells: HEK-293
# Settings: serotonin reuptake inhibition, 3H-5-HT uptake, HEK-293 hSERT cells (values without asterisk); read-out: SERT pIC50 (converted)
# Protocol: (§1) Cells were harvested by centrifugation at 1100 rpm for 5 minutes, washed once by resuspension in PBS, then centrifuged. The supernatant was discarded and the cell pellet resuspended, by gentle trituration, in room temperature Krebs-Ringer bicarbonate buffer containing HEPES (10 mM), CaCl2 (2.2 mM), ascorbic acid (200 μM) and pargyline (200 μM), pH 7.4.
# (§2) Test compounds were incubated for 30 minutes at 37° C. with the respective cells, prior to addition of radiolabeled neurotransmitter, ^3H-5-HT (20 nM final concentration), ^3H-NE (50 nM final concentration) or ^3H-DA (100 nM final concentration).
# T1 sequence (P31645 whole entry): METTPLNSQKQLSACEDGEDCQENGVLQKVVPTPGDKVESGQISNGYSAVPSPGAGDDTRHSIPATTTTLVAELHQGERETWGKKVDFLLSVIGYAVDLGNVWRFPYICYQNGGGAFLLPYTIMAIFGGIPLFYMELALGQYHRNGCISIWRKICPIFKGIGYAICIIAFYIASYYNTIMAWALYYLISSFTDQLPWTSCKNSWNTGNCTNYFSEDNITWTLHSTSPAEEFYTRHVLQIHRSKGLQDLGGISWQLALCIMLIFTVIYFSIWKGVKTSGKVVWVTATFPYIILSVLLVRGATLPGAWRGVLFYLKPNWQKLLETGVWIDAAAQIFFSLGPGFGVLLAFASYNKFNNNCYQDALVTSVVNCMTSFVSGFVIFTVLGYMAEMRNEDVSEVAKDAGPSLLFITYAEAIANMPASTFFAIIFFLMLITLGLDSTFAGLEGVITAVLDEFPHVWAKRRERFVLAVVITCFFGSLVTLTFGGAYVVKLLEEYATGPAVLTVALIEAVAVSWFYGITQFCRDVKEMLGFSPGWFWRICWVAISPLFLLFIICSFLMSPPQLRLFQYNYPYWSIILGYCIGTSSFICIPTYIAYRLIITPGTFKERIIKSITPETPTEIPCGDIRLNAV
row,IC50 [nM],SMILES
1,≤ 100,"CC[C@@H](Oc1c(F)ccc(Cl)c1Cl)[C@H]1CCNC1 [Example 2-39, (S)-3-[(R)-1-(2,3-Dichloro-6-fluorophenoxy)propyl]pyrrolidine]"
2,≤ 10,"CC(C)CC(Oc1cccc(F)c1)C1CCNC1 (centres unmarked) [Example 10-26, 3-[1-(3-Fluorophenoxy)-3-methylbutyl]pyrrolidine]"

# Biological target: T1, hSERT
# Assay: hSERT membrane radioligand binding assay (3H-citalopram), Assay 1
# Settings: SERT pKi, hSERT HEK-293 membranes, 1.0 nM 3H-citalopram; values given as lower bounds
row,Ki [nM],SMILES
1,≤ 10,"FC(F)(F)c1ccc(O[C@@H](C2CC2)[C@H]2CCNC2)cc1 [Example 16-104, (S)-3-[(S)cyclopropyl-(4-trifluoromethylphenoxy)methyl]pyrrolidine]"
2,≤ 100,"Fc1ccccc1O[C@H](C1CCCCC1)[C@H]1CCNC1 [Example 20-1, (S)-3-[(R)-Cyclohexyl-(2-fluorophenoxy)methyl]pyrrolidine]"
3,≤ 100,"COc1ccccc1OC(C1CCCCC1)C1CCNC1 (centres unmarked) [Example 20-2, 3-[Cyclohexyl-(2-methoxyphenoxy)methyl]pyrrolidine]"
4,≤ 100,"O=[N+]([O-])c1ccccc1O[C@H](C1CCCCC1)[C@H]1CCNC1 [Example 20-3, (S)-3-[(R)-Cyclohexyl-(2-nitrophenoxy)methyl]pyrrolidine]"
5,≤ 100,"CC(=O)c1ccccc1O[C@@H](C1CCCCC1)[C@@H]1CCNC1 [Example 20-4, 1-[2-((R)-Cyclohexyl-(S)-pyrrolidin-3-yl-methoxy)phenyl]ethanone]"
6,≤ 10,"Clc1cc(Cl)cc(OC(C2CCCCC2)C2CCNC2)c1 (centres unmarked) [Example 20-6, 3-[Cyclohexyl-(3,5-dichlorophenoxy)methyl]pyrrolidine]"
7,≤ 100,"Fc1cccc(O[C@H](C2CCCCC2)[C@H]2CCNC2)c1 [Example 20-7, (S)-3-[(R)-Cyclohexyl-(3-fluorophenoxy)methyl]pyrrolidine]"
8,≤ 10,"FC1(F)CCC(C(Oc2cc(Cl)cc(Cl)c2)C2CCNC2)CC1 (centres unmarked) [Example 21, 3-[(3,5-Dichloro-phenoxy)-(4,4-difluorocyclohexyl)methyl]pyrrolidine]"
9,≤ 100,"Clc1ccc(O[C@@H](C2CC2)[C@H]2CCNC2)c2ccccc12 [Example 23-2, (S)-3-[(S)-(4-Chloronaphthalen-1-yloxy)cyclopropylmethyl]pyrrolidine]"
10,≤ 10,"C=CC[C@@H](Oc1ccc(Cl)cc1C)[C@H]1CCNC1 [Example 25-2, (S)-3-[(R)-1-(4-Chloro-2-methylphenoxy)but-3-enyl]pyrrolidine]"
11,≤ 10,"C#CC(Oc1ccc(Cl)cc1C)[C@H]1CCNC1 (stereo partly drawn) [Example 27-2, (S)-3-[1-(4-Chloro-2-methylphenoxy)prop-2-ynyl]pyrrolidine]"

# The remaining lines, values behind:
row,SMILES,Ki [nM]
1,"CC[C@@H](Oc1c(F)ccc(Cl)c1Cl)[C@H]1CCNC1 [Example 2-39, (S)-3-[(R)-1-(2,3-Dichloro-6-fluorophenoxy)propyl]pyrrolidine]",≤ 10
2,"CC(C)CC(Oc1cccc(F)c1)C1CCNC1 (centres unmarked) [Example 10-26, 3-[1-(3-Fluorophenoxy)-3-methylbutyl]pyrrolidine]",≤ 10
3,"Fc1cc(Cl)cc(Cl)c1O[C@@H](C1CC1)[C@H]1CCNC1 [Example 16-75, (S)-3-[(S)cyclopropyl-(2,4-dichloro-6-fluorophenoxy)methyl]pyrrolidine]",≤ 10
4,"Cc1cc(Cl)cc(C)c1O[C@@H](C1CC1)[C@H]1CCNC1 [Example 16-82, (S)-3-[(S)-(4-Chloro-2,6-dimethylphenoxy)cyclopropylmethyl]pyrrolidine]",≤ 10
5,"Cc1cc(O[C@@H](C2CC2)[C@H]2CCNC2)c(Cl)c(C)c1Cl [Example 16-83, (S)-3-[(S)cyclopropyl-(2,4-dichloro-3,5-dimethylphenoxy)-methyl]pyrrolidine]",≤ 10
6,"Fc1ccc(O[C@H](C2CC2)[C@@H]2CCNC2)cc1Cl [Example 16-90, (R)-3-[(R)-(3-Chloro-4-fluorophenoxy)cyclopropylmethyl]pyrrolidine]",≤ 10
7,"Fc1cc(O[C@H](C2CC2)[C@@H]2CCNC2)ccc1Cl [Example 16-92, (R)-3-[(R)-(4-Chloro-3-fluorophenoxy)cyclopropylmethyl]pyrrolidine]",≤ 10
8,"Clc1ccc(O[C@H](C2CC2)[C@H]2CCNC2)cc1 [Example 16-102, (S)-3-[(R)-(4-Chlorophenoxy)cyclopropylmethyl]pyrrolidine]",≤ 10

# Biological target: T2, hNET (Homo sapiens, UniProt P23975)
# Assay: hNET neurotransmitter uptake assay (3H-NE), Assay 2
# Assay type: cell-based
# Design: expressed in transfected cells; host or cells: HEK-293
# Settings: norepinephrine reuptake inhibition, 3H-NE uptake, HEK-293 hNET cells (values without asterisk); read-out: NET pIC50 (converted)
# Protocol: as §1, §2
# T2 sequence (P23975 whole entry): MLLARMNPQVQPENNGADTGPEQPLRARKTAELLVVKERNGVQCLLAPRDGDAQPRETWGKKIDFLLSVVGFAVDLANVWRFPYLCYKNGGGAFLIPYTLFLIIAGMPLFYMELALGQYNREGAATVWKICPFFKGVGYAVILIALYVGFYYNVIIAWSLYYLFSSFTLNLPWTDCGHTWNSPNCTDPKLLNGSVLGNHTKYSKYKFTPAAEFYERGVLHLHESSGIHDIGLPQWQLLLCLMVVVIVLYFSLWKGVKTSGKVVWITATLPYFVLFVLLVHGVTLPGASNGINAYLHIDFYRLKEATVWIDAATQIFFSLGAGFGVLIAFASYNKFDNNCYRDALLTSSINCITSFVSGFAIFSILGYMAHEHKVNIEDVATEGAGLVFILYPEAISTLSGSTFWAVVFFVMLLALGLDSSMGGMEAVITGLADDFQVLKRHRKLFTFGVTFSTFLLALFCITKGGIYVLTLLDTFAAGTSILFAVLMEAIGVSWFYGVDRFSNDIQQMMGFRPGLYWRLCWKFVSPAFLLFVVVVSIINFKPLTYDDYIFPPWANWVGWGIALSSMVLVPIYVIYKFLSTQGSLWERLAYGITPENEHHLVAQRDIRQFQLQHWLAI
row,IC50 [nM],SMILES
1,≤ 10,"CC[C@@H](Oc1c(F)ccc(Cl)c1Cl)[C@H]1CCNC1 [Example 2-39, (S)-3-[(R)-1-(2,3-Dichloro-6-fluorophenoxy)propyl]pyrrolidine]"
2,≤ 10,"CC(C)CC(Oc1cccc(F)c1)C1CCNC1 (centres unmarked) [Example 10-26, 3-[1-(3-Fluorophenoxy)-3-methylbutyl]pyrrolidine]"

# Biological target: T2, hNET
# Assay: hNET membrane radioligand binding assay (3H-nisoxetine), Assay 1
# Settings: not given
row,Ki [nM],SMILES
1,≤ 100,"FC(F)(F)c1ccc(O[C@@H](C2CC2)[C@H]2CCNC2)cc1 [Example 16-104, (S)-3-[(S)cyclopropyl-(4-trifluoromethylphenoxy)methyl]pyrrolidine]"
2,≤ 10,"Fc1ccccc1O[C@H](C1CCCCC1)[C@H]1CCNC1 [Example 20-1, (S)-3-[(R)-Cyclohexyl-(2-fluorophenoxy)methyl]pyrrolidine]"
3,≤ 100,"COc1ccccc1OC(C1CCCCC1)C1CCNC1 (centres unmarked) [Example 20-2, 3-[Cyclohexyl-(2-methoxyphenoxy)methyl]pyrrolidine]"
4,≤ 10,"O=[N+]([O-])c1ccccc1O[C@H](C1CCCCC1)[C@H]1CCNC1 [Example 20-3, (S)-3-[(R)-Cyclohexyl-(2-nitrophenoxy)methyl]pyrrolidine]"
5,≤ 10,"CC(=O)c1ccccc1O[C@@H](C1CCCCC1)[C@@H]1CCNC1 [Example 20-4, 1-[2-((R)-Cyclohexyl-(S)-pyrrolidin-3-yl-methoxy)phenyl]ethanone]"
6,≤ 10,"Clc1cc(Cl)cc(OC(C2CCCCC2)C2CCNC2)c1 (centres unmarked) [Example 20-6, 3-[Cyclohexyl-(3,5-dichlorophenoxy)methyl]pyrrolidine]"
7,≤ 10,"Fc1cccc(O[C@H](C2CCCCC2)[C@H]2CCNC2)c1 [Example 20-7, (S)-3-[(R)-Cyclohexyl-(3-fluorophenoxy)methyl]pyrrolidine]"
8,≤ 10,"FC1(F)CCC(C(Oc2cc(Cl)cc(Cl)c2)C2CCNC2)CC1 (centres unmarked) [Example 21, 3-[(3,5-Dichloro-phenoxy)-(4,4-difluorocyclohexyl)methyl]pyrrolidine]"
9,≤ 10,"Clc1ccc(O[C@@H](C2CC2)[C@H]2CCNC2)c2ccccc12 [Example 23-2, (S)-3-[(S)-(4-Chloronaphthalen-1-yloxy)cyclopropylmethyl]pyrrolidine]"
10,≤ 100,"C=CC[C@@H](Oc1ccc(Cl)cc1C)[C@H]1CCNC1 [Example 25-2, (S)-3-[(R)-1-(4-Chloro-2-methylphenoxy)but-3-enyl]pyrrolidine]"
11,≤ 100,"C#CC(Oc1ccc(Cl)cc1C)[C@H]1CCNC1 (stereo partly drawn) [Example 27-2, (S)-3-[1-(4-Chloro-2-methylphenoxy)prop-2-ynyl]pyrrolidine]"

# Further lines, the compound ahead of its results:
row,SMILES,Ki [nM]
1,"CC[C@@H](Oc1c(F)ccc(Cl)c1Cl)[C@H]1CCNC1 [Example 2-39, (S)-3-[(R)-1-(2,3-Dichloro-6-fluorophenoxy)propyl]pyrrolidine]",≤ 10
2,"Fc1cc(Cl)cc(Cl)c1O[C@@H](C1CC1)[C@H]1CCNC1 [Example 16-75, (S)-3-[(S)cyclopropyl-(2,4-dichloro-6-fluorophenoxy)methyl]pyrrolidine]",≤ 10
3,"Cc1cc(Cl)cc(C)c1O[C@@H](C1CC1)[C@H]1CCNC1 [Example 16-82, (S)-3-[(S)-(4-Chloro-2,6-dimethylphenoxy)cyclopropylmethyl]pyrrolidine]",≤ 100
4,"Cc1cc(O[C@@H](C2CC2)[C@H]2CCNC2)c(Cl)c(C)c1Cl [Example 16-83, (S)-3-[(S)cyclopropyl-(2,4-dichloro-3,5-dimethylphenoxy)-methyl]pyrrolidine]",≤ 100
5,"Fc1ccc(O[C@H](C2CC2)[C@@H]2CCNC2)cc1Cl [Example 16-90, (R)-3-[(R)-(3-Chloro-4-fluorophenoxy)cyclopropylmethyl]pyrrolidine]",≤ 100
6,"Fc1cc(O[C@H](C2CC2)[C@@H]2CCNC2)ccc1Cl [Example 16-92, (R)-3-[(R)-(4-Chloro-3-fluorophenoxy)cyclopropylmethyl]pyrrolidine]",≤ 100
7,"Clc1ccc(O[C@H](C2CC2)[C@H]2CCNC2)cc1 [Example 16-102, (S)-3-[(R)-(4-Chlorophenoxy)cyclopropylmethyl]pyrrolidine]",≤ 100
